Reference: the NIST ThermoML archive (doi:10.1016/j.tca.2015.08.013)
± gives the expanded uncertainty stated by the source.

Details: for surface tension liquid-gas: Drop volume; for mass density / kinematic viscosity / speed of sound / vapor or sublimation pressure: Liquid; for mass density: Vibrating tube method; for kinematic viscosity / speed of sound: 101.33 kPa; for kinematic viscosity: Capillary tube (Ostwald / Ubbelohde) method; for speed of sound: Sing-around technique in a fixed-path interferometer; for vapor or sublimation pressure: Ebulliometric method (Recirculating still)

c1ccoc1 [furan]
Details | kinematic viscosity [m2/s] | speed of sound [m/s] | surface tension liquid-gas [mN/m] | vapor or sublimation pressure [kPa]
278.15 K | 4.59e-07 ± 9.9e-09 | 1228.1 ± 1.5 | 26.03 ± 0.23 | –
280.65 K | 4.48e-07 ± 9.7e-09 | 1216.2 ± 1.5 | 25.69 ± 0.23 | –
283.15 K | 4.39e-07 ± 9.5e-09 | 1204.5 ± 1.5 | 25.32 ± 0.23 | –
284.4 K | – | – | – | 45.59 ± 0.21
285.65 K | 4.3e-07 ± 9.3e-09 | 1192.8 ± 1.5 | 24.97 ± 0.23 | –
285.86 K | – | – | – | 48.66 ± 0.21
287.16 K | – | – | – | 51.63 ± 0.21
288.15 K | 4.2e-07 ± 9.1e-09 | 1181 ± 1.5 | 24.59 ± 0.22 | –
288.34 K | – | – | – | 54.23 ± 0.21
289.2 K | – | – | – | 56.05 ± 0.21
290.4 K | – | – | – | 59.18 ± 0.21
290.65 K | 4.09e-07 ± 8.9e-09 | 1169.2 ± 1.5 | 24.18 ± 0.22 | –
291.7 K | – | – | – | 62.26 ± 0.21
292.2 K | – | – | – | 63.6 ± 0.21
292.79 K | – | – | – | 64.53 ± 0.22
293.15 K | 3.99e-07 ± 8.6e-09 | 1157.4 ± 1.5 | 23.79 ± 0.22 | –
294.55 K | – | – | – | 69.25 ± 0.22
295.55 K | – | – | – | 72.4 ± 0.22
295.65 K | 3.89e-07 ± 8.4e-09 | 1145.3 ± 1.5 | 23.35 ± 0.22 | –
296.9 K | – | – | – | 76.25 ± 0.22
297.36 K | – | – | – | 77.63 ± 0.22
298.15 K | 3.79e-07 ± 8.2e-09 | 1133.1 ± 1.5 | 22.94 ± 0.21 | –

Details | mass density [kg/m3]
278.15 K, 99 kPa | 959.086 ± 0.23
280.65 K, 99 kPa | 955.729 ± 0.23
283.15 K, 99 kPa | 952.358 ± 0.23
283.15 K, 100 kPa | 952.36 ± 0.29
283.15 K, 2500 kPa | 954.38 ± 0.29
283.15 K, 5000 kPa | 956.94 ± 0.3
283.15 K, 7500 kPa | 959.39 ± 0.3
283.15 K, 10000 kPa | 961.81 ± 0.3
283.15 K, 20000 kPa | 970.97 ± 0.31
283.15 K, 30000 kPa | 979.35 ± 0.31
283.15 K, 40000 kPa | 987.2 ± 0.3
283.15 K, 50000 kPa | 994.5 ± 0.3
283.15 K, 60000 kPa | 1001.42 ± 0.29
285.65 K, 99 kPa | 948.976 ± 0.23
288.15 K, 99 kPa | 945.579 ± 0.23
288.15 K, 100 kPa | 945.58 ± 0.29
288.15 K, 2500 kPa | 947.81 ± 0.29
288.15 K, 5000 kPa | 950.42 ± 0.3
288.15 K, 7500 kPa | 953.03 ± 0.3
288.15 K, 10000 kPa | 955.59 ± 0.3
288.15 K, 20000 kPa | 965.03 ± 0.31
288.15 K, 30000 kPa | 973.69 ± 0.31
288.15 K, 40000 kPa | 981.69 ± 0.31
288.15 K, 50000 kPa | 989.18 ± 0.3
288.15 K, 60000 kPa | 996.21 ± 0.3
290.65 K, 99 kPa | 942.167 ± 0.23
293.15 K, 99 kPa | 938.739 ± 0.23
293.15 K, 100 kPa | 938.74 ± 0.29
293.15 K, 2500 kPa | 940.99 ± 0.29
293.15 K, 5000 kPa | 943.7 ± 0.3
293.15 K, 7500 kPa | 946.38 ± 0.3
293.15 K, 10000 kPa | 948.97 ± 0.3
293.15 K, 20000 kPa | 958.75 ± 0.31
293.15 K, 30000 kPa | 967.71 ± 0.32
293.15 K, 40000 kPa | 976.04 ± 0.32
293.15 K, 50000 kPa | 983.77 ± 0.31
293.15 K, 60000 kPa | 990.98 ± 0.3
295.65 K, 99 kPa | 935.294 ± 0.23
298.15 K, 99 kPa | 931.835 ± 0.23
298.15 K, 100 kPa | 931.84 ± 0.29
298.15 K, 2500 kPa | 934.31 ± 0.29
298.15 K, 5000 kPa | 937.14 ± 0.3
298.15 K, 7500 kPa | 939.92 ± 0.3
298.15 K, 10000 kPa | 942.68 ± 0.31
298.15 K, 20000 kPa | 952.79 ± 0.32
298.15 K, 30000 kPa | 961.99 ± 0.32
298.15 K, 40000 kPa | 970.53 ± 0.32
298.15 K, 50000 kPa | 978.42 ± 0.32
